# Results reported in patent US20060251689A1, “Treatment or prevention of pruritus” (Astion Development A/S, priority 2005, published 2006).
# “Also recorded” adds a separate entry of the source.
# How the values were obtained:
# [1] = system: oxazolone induced ear inflammation in mice; experiment: Oxazolone induced mouse ear oedema assay; assay type: in vivo
# Description: This screening method is commonly employed for screening and evaluation of anti-inflammatory drugs, in particular with respect to the inflammation seen in contact dermatitis. Betamethasone-17 valerate was used as the positive control. […] Betamethason was administered topically in quantities of 20 μg/ear. Betamethason was applied in the commercial form Celeston valerate® 0.1%. All groups were immunised with 20 μl oxazolone, 1.6% in ethanol 96% (w/v) on the left and the right ear. The ear thickness of all mice on both the left and right side was measured with an electronic measuring gauge. All groups were challenged with 20 μl oxazolone (1.6% in ethanol 96% (w/v)) on the left ear and the right ear. Vehicle (acetone) or test article solutions were administered 20 minutes before and 20 minutes after oxazolone challenge. 24 hours after oxazolone challenge the ear thickness of all mice was measured with an electronic measuring gauge. Mean thickness of the ears and standard deviations were calculated. Ear swelling was calculated as the difference between the ear thickness day 7 and day 8. […] Differences in ear swelling between the vehicle treated group and the other groups were tested for significance employing a non-parametric statistical method of analysis, the Mann-Whitney U test. The required level of significance was p<0.05. […] Both test articles were applied in a dose of 500 μg/ear and dissolved in 96% ethanol. Betamethason, as the positive control was administered topically in quantities of 20 μg/ear.
# [2] = target: T1, Protein Tyrosine Kinase, ZA70 (ZAP-70) (Homo sapiens, UniProt P43403); experiment: enzyme assay, Protein Tyrosine Kinase ZA70 (ZAP-70) (MDS Pharma Service No 155987); assay type: biochemical; conditions: in words, comparison
# T1 construct: purchased MDS Pharma Services (printed once as 'MSD Pharma Services') 155987
# T1 sequence (P43403 1-619): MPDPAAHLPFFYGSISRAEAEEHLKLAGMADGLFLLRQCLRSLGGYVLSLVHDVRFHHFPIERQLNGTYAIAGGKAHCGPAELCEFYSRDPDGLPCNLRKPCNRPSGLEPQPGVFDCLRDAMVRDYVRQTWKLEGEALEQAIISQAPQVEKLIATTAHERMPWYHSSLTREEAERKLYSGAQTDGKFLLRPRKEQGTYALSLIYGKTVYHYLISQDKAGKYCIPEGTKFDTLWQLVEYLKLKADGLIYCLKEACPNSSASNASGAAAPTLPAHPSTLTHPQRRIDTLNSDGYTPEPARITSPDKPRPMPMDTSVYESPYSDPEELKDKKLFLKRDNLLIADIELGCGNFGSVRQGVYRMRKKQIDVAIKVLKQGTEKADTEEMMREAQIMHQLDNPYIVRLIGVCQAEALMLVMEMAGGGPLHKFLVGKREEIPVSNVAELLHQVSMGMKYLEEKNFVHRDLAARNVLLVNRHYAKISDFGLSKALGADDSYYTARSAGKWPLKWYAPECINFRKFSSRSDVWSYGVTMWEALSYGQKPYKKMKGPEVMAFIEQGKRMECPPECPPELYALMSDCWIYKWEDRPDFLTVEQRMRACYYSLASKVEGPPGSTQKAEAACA
# Description: (§1) The enzyme assays were conducted by MSD Pharma Services.
# Phosphodiesterase PDE IV = experiment: enzyme assay, Phosphodiesterase PDE IV (MDS Pharma Service No 154000); assay type: biochemical; conditions: in words, comparison
# [3] = target: T2, Protein Tyrosine Kinase, SYK (Homo sapiens, UniProt P43405); experiment: enzyme assay, Protein Tyrosine Kinase SYK (MDS Pharma Service No 155761); assay type: biochemical; conditions: in words, comparison
# T2 construct: purchased MDS Pharma Services (printed once as 'MSD Pharma Services') 155761
# Description: as §1
# skin = conditions: reported in the literature; cited from earlier work
# [4] = system: Albino guinea pigs of Dunkin-Hartley strain; conditions: guinea pig, in vivo
# Description: Test for skin sensitization is carried out according to the Magnusson and Kligman method (J. Invest. Dermatol. 1969. 52, 268-276) and in accordance with O.E.C.D. Guideline No. 406 of Jul. 17th, 1992, and the test method B.6 of the 96/54 E.E.C Directive.
# Albino guinea pigs of Dunkin-Hartley strain were exposed to the test item after an acclimatisation period of at least five days.
# The Maximum Non Necrotizing Concentration (M.N.N.C.) was determined by injecting by intradermal route the following concentrations: 2.5%, 1.25%, 0.625%, 0.3125%, 0.1562% and 0.078% diluted in physiological saline solution.
# Pre-Maximum Non Irritant Concentration (pre-M.N.I.C.) was determined by application of the test item under an occlusive dressing during 24 hours, at the following concentrations: 2.5%, 1.25%, 0.625%, 0.3125% diluted in physiological saline solution.
# Maximum Non Irritant Concentration (M.N.I.C.) was determined by initially establishing an induction phase by intradermal injection with a physiological saline solution and by topical application of distilled water followed by a 18-day rest phase. In the challenge phase where the test item is under occlusive dressing for 24 hours, the test item was applied to the skin of the Albino guinea pigs at the following concentrations: 2.5%, 1.25%, 0.625%, 0.3125% diluted in physiological saline solution.
# undamaged skin area = experiment: Acute dermal irritation; assay type: in vivo
# Description: The sample was applied at a dose of 0.5 mL, on an undamaged skin area of the right flank of each animal. The patch was secured in position with a strip of surgical adhesive tape.
# On the left flank an untreated area served as the control.
# The skin reactions were evaluated after 1 hour and then after 24, 48 and 72 hours following removal of the patch according to the following grading scale:
# Erythema (0: No erythema, 1: Slight(barelyperceptible)erythema, 2: Definite erythema, 3: Moderate to severe erythema, 4: Severe erythema (purpie) with formation of eschars (deep lesions) preventing erythema from being grading).
# Oedema (0: No oedema, 1: Very slight (barely perceptible) oedema, 2: Slight oedema (contour clearly defined), 3: Moderate oedema (thickness), 4: Severe oedema (thickness greater than 1 mm, surface larger than zone of application)
# [5] = system: moderate to severe inflammation following treatment with cryotherapy; conditions: topically applied; cited from earlier work
# [6] = system: experimental contact dermatitis; conditions: topically applied; cited from earlier work
smiles,measurement,setting,value
CCCCC(=O)O[C@]1(C(=O)CO)[C@@H](C)C[C@H]2[C@@H]3CCC4=CC(=O)C=C[C@]4(C)[C@@]3(F)[C@@H](O)C[C@@]21C [Betamethasone 17-valerate],% inhibition of ear swelling,"[1]; 20 μg/ear topical (Celeston valerate 0.1%), 24 hours after challenge",66%
CCCCOc1ccc(CC(=O)NO)cc1 [Bufexamac],inhibitory effect on Protein Tyrosine Kinase ZAP-70,[2],only exhibits inhibitory effect on the PDE-IV enzyme
same,inhibitory effect on the PDE-IV enzyme,Phosphodiesterase PDE IV,inhibitory effect
same,inhibitory effect on Protein Tyrosine Kinase SYK,[3],only exhibits inhibitory effect on the PDE-IV enzyme
same,cutaneous side effects,skin,cause contact allergy; also recorded: major contact allergens
O=C(O)Cc1ccccc1Nc1c(Cl)cccc1Cl [Diclofenac],cutaneous side effects,skin,irritant-type contact dermatitis may develop
CC(C(=O)O)c1cccc(C(=O)c2ccccc2)c1 (stereo not shown) [Ketoprofen],cutaneous side effects,skin,major contact allergens
O=C(O)CCc1nc(-c2ccccc2)c(-c2ccccc2)o1 [Monoethanolamine Oxaprozin],"sensitization, macroscopic cutaneous reactions in the challenge phase",[4],No macroscopic cutaneous reactions attributable to allergy
same,inhibition of ear swelling (conclusion in words),[1]; 250-1000 μg/ear topical,dose dependent and highly significant inhibition
"O=C(O)CCc1nc(-c2ccccc2)c(-c2ccccc2)o1 [Oxaprozin, 4,5-diphenyl-2-oxazole-propionic acid]",inhibition of the formation of ear oedema,"[1]; Example 7, 500 μg/ear dissolved in 96% ethanol",statistically significant inhibition
same,cutaneous reactions (erythema and oedema),"undamaged skin area; 2.5% by weight in water (monoethanolamine salt), 0.5 mL, 1, 24, 48 and 72 hours",no cutaneous reactions
same,erythema on the treated area,"undamaged skin area; 5% by weight in water (monoethanolamine salt), 0.5 mL, reading time 1 hour",slight erythema
same,reversibility of the erythema,"undamaged skin area; 5% by weight, between the 2nd and the 3rd day of the test",totally reversible
CC(=O)Oc1ccccc1C(=O)O [aspirin],cutaneous side effects,skin,may induce urticarial reactions
CCC(=O)O[C@]1(C(=O)CCl)[C@@H](C)C[C@H]2[C@@H]3CCC4=CC(=O)C=C[C@]4(C)[C@@]3(F)[C@@H](O)C[C@@]21C [clobetasol propionate],relieving the erythema and oedema,[5],proved to have effect
COc1ccc2c(c1)c(CC(=O)O)c(C)n2C(=O)c1ccc(Cl)cc1 [indomethacin],relieving the erythema and oedema,[5],poor effect
same,response in an animal model of contact dermatitis,[6],has been shown to respond
same,cutaneous side effects,skin,may induce urticarial reactions
CN1C(C(=O)Nc2ccccn2)=C(O)c2ccccc2S1(=O)=O [piroxicam],cutaneous side effects,skin,phototoxic or photoallergic dermatitis
